The text below walks through data of patent publication US8658677B2, “Pyridyl-2-methylamino compounds, compositions and uses thereof” (Aria Neurosciences Inc., priority 2011, dated 2014).

“Also recorded” adds a separate entry of the source. A value given as a limit tells only on which side of the number the result lay.

A short description of one data set: Log P. The format is physicochemical.
In data set [1] the test system is APP. Briefly: APP, C99, C83 and sAPP levels in 751APPSW CHO cells (immunoblot, immunostaining). In kind it is cell-based, human.
Another data set deals with Aβ42. Briefly: Secretion of Aβ42 by 751APPSW CHO cells (sandwich ELISA). The format is cell-based. To be noted: 48 hr; for Emax: read-out: EMAX of Aβ42 production inhibition; for IC50: read-out: IC50% of Aβ42 production. The protocol: (§1) In addition to studying the effect of ARN4261 and ARN2966 on Aβ oligomerization and fibrillization, we have explored their properties in respect to the modulation of Aβ production using CHO clones stably transfected with WT human APP751 and double Swedish APP751 mutant (KM670/671NL). The results in FIGS. 3(A) and 3(B) show inhibitory effect of ARN4261 and ARN2966 on secretion of Aβ40 and Aβ42 by 751APPSW CHO cells exposed to ARN compounds for 48 hr. Values are expressed as % of Aβ40 and Aβ42 levels in conditioned media (CM) of untreated cells. FIG. 3(C) Concentrations of Aβ40 and Aβ42 in 751APPSWCHO cell CM under increasing concentrations of ARN2966. 751APPSWCHO cells secrete Aβ40 and Aβ42 in proportions 9:1, akin to the proportions of Aβ peptides produced by neurons. […] Aβ40 and Aβ42 levels were determined using sandwich ELISA where C-terminal specific anti Aβ40 and Aβ42 mAbs were used as capture Abs and biotinylated 4G8 as the detection Ab. […] We also confirmed that ARN2966 inhibited secretion of Aβ by primary neuronal cultures derived from Tg2576 AD Tg mice.

A further data set deals with APPSW/PS1dE9 mice. As to the kind of experiment: Memory testing: object recognition and 8-armed radial arm maze. To be noted: 50 mg/kg/day ip, last three weeks of treatment. In kind it is in vivo. The protocol: Female APPSW/PS1dE9 mice received ARN2966 (n=10) or Vehicle (n=15) from the age of six to ten months. ARN2966 (50 mg/kg/day) was given once a day by intraperitoneal injection. […] After conclusion of the experiments, samples of organs from ARN2966 and Vehicle treated animals were subjected to histopathological evaluation conducted by a veterinary pathologist. […] Signs of mild chronic peritonitis related to repeated daily intraperitoneal compound injection, however, were reported in both groups.
P<0.05, unpaired, two-tailed t-test. […] One session is given per day. […] Starting from day five, vehicle treated APPSW/PS1dE9mice were consistently making more errors than ARN2966 treated APPSW/PS1dE9 and non-Tg littermates. One-way ANOVA p<0.001.
During the last three weeks of treatment, animals were behaviorally tested using object recognition paradigm and the 8-armed radial arm maze, both of which measure memory capability. […] However, vehicle treated APPSW/PS1dE9 mice were incapable of discriminating between familiar and novel objects, as is characteristic of their phenotype.

Data set [2] has as its system APP. Briefly: 35S-Methionine pulse labeling of APP in 751APPSW CHO cells. The format is cell-based, human. On the procedure:
D. APP was immunoprecipitated with 22C11 mAb against its N-terminus. Representative radiographs (B) and densitometric results averaged from three independent experiments are shown (A). […] Two sets of experiments were conducted using either actin or GAPDH as housekeeping genes.

Data set [3] has as its system SK-N-SH human neuroblastoma cells. As to the kind of experiment: Toxicity by MTT cell viability and LDH release assays. The format is cell-based. On the procedure: The effect of 0.01-100 μmol/L concentrations of investigational compounds was tested on the viability of the N2a murine neuroblastoma cell line (American Type Culture Collection, Manassas, Va.). N2a cells were grown in Eagle's minimal essential medium with the addition of 10% fetal bovine serum, streptomycin and gentomycin (Sigma, St. Louis, Mo.), harvested with 2% trypsin and plated at 10,000 cells/100 μL per well in flatbottom, 96-well microtiter plates. The cells were allowed to attach to the plate overnight in an incubator (37° C., 5% CO2) and in the following morning stocks of investigational compounds (50 mmol/L stock diluted in DMSO) were added to cells to achieve the final concentration 0.01-100 μmol/L. Adequate amounts of DMSO (Dimethyl sulfoxide, Sigma, St. Louis, Mo.) were added to control cells. Cells were grown in the presence of investigational compounds for 48 h and then their viability was assessed using a metabolic assay, which is based on cleavage of the yellow tetrazolium salt (MTT) to purple formazan crystals by viable cells. The MTT assay (Roche Molecular Biochemicals, Indianapolis, Ind.) was performed according to the manufacturer's instructions. The results from cell culture neurotoxicity studies were evaluated by one-way analysis of variance, followed by a Dunnett's test as a post hoc analysis.
As shown in FIG. 2 (MTT assay), the compounds were tested for toxicity in SK-N-SH human neuroblastoma cells using MTT cell viability and LDH release (membrane integrity) assays.

The next data set concerns Aβ40. Briefly: Aβ40 secretion by primary hippocampal neurons derived from Tg2576 AD Tg mice. The format is cell-based. To be noted: 10 μM, primary neuronal cultures from Tg2576 mice. On the procedure:
as §1

For data set [4], the system named is APP. As to the kind of experiment: Acute treatment experiment: brain soluble Aβ40, APP, C99 and C83. Conditions: five days ip, ARN2966 50 mg/kg/day, Compound E 3 mg/kg/day. In kind it is in vivo, mice. The protocol: Furthermore, we conducted an acute treatment experiment where six months old female APPSW/PS1dE9 mice (n=3/group) were treated for five days with ARN2966 (50 mg/kg/day), Compound E (3 mg/kg/day) or Vehicle injected intraperitoneally. Mice were killed three hours after the last injections. The level of soluble Aβ40 was measured in the brain aliquots following diethylamine (DEA) extraction. It was lower in ARN2966 and Compound E treated groups by 39% (p<0.05) and 60% (p<0.05) comparing to vehicle treated mice, respectively (p<0.05; FIG. 6E).
FIGS. 6.(A, B) ARN2966 treatment reduces load of Aβ plaques (n=10 ARN2966, n=15 Vehicle). (B) Representative photomicrograph of Th-S stained brain sections from vehicle and ARN2966 treated 10 month old, female APPSW/PS1dE9reveal a difference in the load of Aβ plaques. […] (D) Reduced Aβ40 and Aβ42 levels in FA extracted brain homogenate, which represent the total brain content of Aβ peptides in ARN2966 treated animals (ELISA). (E) Reduced soluble Aβ40 level in DEA extracted brain homogenate, of ARN2966 and Compound E treated mice (ELISA). […] Aβ concentrations in (C) (D) and (E) are given per gram of wet brain. All values are given as mean±SEM. Statistical analysis was done using two-tailed unpaired t-test, following confirmation of normal distribution of data using Shapiro-Wilk test.

The nature of data set [5]: Analysis of chemical structure stability. In kind it is physicochemical. An excerpt:
This is because of the instability of —C═N— bond. Therefore we have synthesized a reduced version of ARN4261dubbed ARN2966 (2-[(pyridine-2-ylmethyl)-amino]-phenol, MW 200.2 Da, Log P 1.96).

In the data set “Log P”, `Oc1ccccc1NCc1ccccn1` [ARN2966, 2-[(pyridine-2-ylmethyl)-amino]-phenol] showed a logP of 1.96. In addition, in the data set on APP [1] (751APPSW CHO cells), the “anti-APP immunostaining with 22C11 mAb” value is recorded as “reduced without evidence of staining redistribution; also recorded: Reduced anti-APP staining”. In addition, in the data set on APP [1] (751APPSW CHO clone), the “concentrations at which reduction in APP FL level is seen” value was at least 10 µM; the “level of APP FL, C99 and C83 in cell lysates” value is “reduce the level of full length APP (APP FL) and both C99 and C83 APP stubs; also recorded: reduced levels of full length APP (APP FL) and C99 and C83 APP stubs”; the “sAPP (sAPPα and total sAPP stub) in conditioned media” value was “reduced levels”. For the same molecule, in the data set with APP [1] (751APPSW CHO clone, increasing concentration), the “level of β-actin” value is on record as “no apparent change”. In the data set with Aβ42, the Emax was determined as 84.5% and the IC50 amounted to 5.53 µM. Besides, in the data set on APPSW/PS1dE9 mice, the object recognition test entry is reported as “spent significantly more time exploring the novel object; also recorded: able to distinguish a novel object from the familiar object” and the “radial arm maze, errors per session” value is on record as “made fewer errors than vehicle group”. In addition, the “reduction of translation of APP” value in the data set with APP [2] (25 μM, 2 h 35S-Methionine pulse) was found to be 61.5%. In the data set with APP [2] (751APPSW CHO cells), the “incorporation of 35S-Methionine by APP during translation” value is listed as “significantly reduced incorporation of 35S-Methionine by APP” and the “translation of β-actin” value is “remained unaltered”. Further, the toxicity result in data set [3] (test not specified) is recorded as “not toxic”. In addition, in the data set with Aβ40, the “lowering of Aβ40 concentration in the conditioned media” value turned out to be 61.4%. Besides, in the data set with APP [4], the “APP, C99 and C83 signal in brain homogenate (western immunoblotting)” value is “evident reduction of APP, C99, and C83 signal”. The “lowering of soluble Aβ40 (DEA extraction) in brain vs vehicle” value with APP [4] (killed three hours after last injection) is 39%.

In the case of `Oc1ccccc1N=Cc1ccccn1` [ARN4261, 2-(Pyridin-2-ylmethyleneamino)-phenol], the chemical structure stability result in data set [5] was “prone to self-decomposing”. Further, the “stability in acidic pH” value in data set [5] (acidic pH) is “easily degradable in acidic pH”. Further, the “level of APP FL, C99 and C83 in cell lysates” value in the data set with APP [1] (751APPSW CHO clone) is “reduce the level of full length APP (APP FL) and both C99 and C83 APP stubs; also recorded: reduced levels of full length APP (APP FL) and C99 and C83 APP stubs”. Besides, in the data set on Aβ42, the maximal response (Emax) stood at 98.9 ± 0.4% and the IC50 worked out at 6.54 µM. The toxicity entry in data set [3] (0.1-100 μM) is listed as “no toxicity”.
